From US4508716A, “[1,2]-Fused 1,4-benzodiazepine compounds, process for their preparation and compositions containing them” (Kali-Chemie Pharma GmbH, priority 1981, dated 1985)

Tests used:
[1] = Acute toxicity (acute 7-day toxicity following a single oral administration, LD50 by probit analysis); conditions: mouse, in vivo, NMR1 mice
Protocol: The acute 7-day toxicity is determined following a single oral administration to white, fasting NMR1 mice, and the LD50 value is calculated by electronic data processing, by probit analysis.

[2] = system: apomorphine-induced climbing behaviour; test: Test for neuroleptic properties: inhibition of apomorphine-induced climbing behaviour in mice; type: in vivo; conditions: Mus musculus, male NMR1 mice, 60 min before apomorphine 1.0 mg/kg s.c.; for inhibition in vivo at 2.2 mg/kg: dose 2.2 mg/kg peroral
Protocol: 2. Test for neuroleptic properties
Determination of the effective dose for inhibiting apomorphine-induced climbing behaviour in mice (modified method of P. Protais et al., Psychopharmacology 50, (1976), 1-6).
Groups each containing 10 male NMR1 mice of 18-24 g. body weight are used per test dose. The test substance is administered perorally, as a suspension in […] "Tylose" solution.
After 60 minutes, the animals are each injected subcutaneously with 1.0 mg./kg. of apomorphine, and immediately after the injection, each animal is placed under a vertical wire mesh cylinder (diameter 13 cm., height 16 cm., closed at the top). After 10, 20 and 30 minutes, the climbing behaviour of the animals is evaluated in accordance with the following point system:
0 points=no paw on the mesh
1 point=one or two paws touching the mesh
2 points=three or all paws gripping the mesh, or climbing
For each test group, the sum of the points (maximum number of points=20) at the three test times is determined, and the average of the 3 values is taken for calculating the inhibition of climbing behaviour effected by the test substance.
In the table which follows, the inhibiting action is given in % inhibition in comparison with the climbing behaviour of a control group which was not treated with the test substance.

hexobarbital anaesthesia = test: Test for the central nervous system sedating properties: prolongation of the duration of hexobarbital anaesthesia in mice; type: in vivo; conditions: male mice, 60 min before hexobarbital sodium 50 mg/kg i.v.

In the case of `CN1CCN2c3ccccc3C(c3cccs3)=NCC2C1` (centres unmarked) [Example 4, 1,2,3,4,4a,5-Hexahydro-3-methyl-7-(2-thienyl)-pyrazino[1,2-a][1,4]benzodiazepine], the LD50 at 168 h [1] is reported as about 440 mg/kg, the inhibition in vivo at 2.9 mg/kg ([2]; dose 2.9 mg/kg peroral) is reported as 70% and the “Prolongation of the duration of hexobarbital anaesthesia, prolongation factor” value (“Prolongation” below) (hexobarbital anaesthesia; dose ≤13.8 mg/kg peroral) is reported as 0.
In the case of `CN1CCN2c3ccc(Cl)cc3C(c3cccn3C)=NCC2C1` (centres unmarked) [Example 9, 1,2,3,4,4a,5-Hexahydro-9-chloro-3-methyl-7-[2-(N-methyl)-pyrrolyl]-pyrazino[1,2-a][1,4]benzodiazepine], the LD50 at 168 h [1] is reported as over 893 mg/kg, the inhibition in vivo at 4.2 mg/kg ([2]; dose 4.2 mg/kg peroral) is reported as 48% and the “Prolongation” value (hexobarbital anaesthesia; dose ≤41.5 mg/kg peroral) is reported as 0.
For `Cc1ccc2c(c1)C(c1ccco1)=NCC1CN(C)CCN21` (centres unmarked) [Example 10a, 1,2,3,4,4a,5-Hexahydro-3,9-dimethyl-7-(2-furyl)-pyrazino[1,2-a][1,4]benzodiazepine], the LD50 at 168 h [1] was over 422 mg/kg, the inhibition in vivo at 13.3 mg/kg ([2]; dose 13.3 mg/kg peroral) was 31% and the “Prolongation” value (hexobarbital anaesthesia; dose ≤42.2 mg/kg peroral) was 0.
For `Cc1ccc2c(c1)C(c1ccc(Br)s1)=NCC1COCCN21` (centres unmarked) [Example 22], the LD50 at 168 h [1] was over 811 mg/kg, the inhibition in vivo at 8.1 mg/kg ([2]; dose 8.1 mg/kg peroral) was 50% and the “Prolongation” value (hexobarbital anaesthesia; dose 37.7 mg/kg peroral) was 1.5.
For `Cc1ccc2c(c1)C(c1ccco1)=[N+]([O-])CC1CN(C)CCN21` (centres unmarked) [Example 35], the LD50 at 168 h [1] was over 311 mg/kg, the inhibition in vivo at 9.8 mg/kg ([2]; dose 9.8 mg/kg peroral) was 35% and the “Prolongation” value (hexobarbital anaesthesia; dose 9.8 mg/kg peroral) was 2.1.
With `COc1ccc2c(c1)N1CCN(C)CC1C[N+]([O-])=C2c1ccco1` (centres unmarked) [Example 36] the LD50 at 168 h [1] was over 704 mg/kg, the inhibition in vivo at 22.3 mg/kg ([2]; dose 22.3 mg/kg peroral) was 34% and the “Prolongation” value (hexobarbital anaesthesia; dose ≤70.4 mg/kg peroral) was 0.
With `CCOc1ccc2c(c1)C(c1ccn(C)c1)=NCC1CN(C)CCN21` (centres unmarked) [Example 41] the inhibition in vivo at 13.9 mg/kg ([2]; dose 13.9 mg/kg peroral) was 14% and the “Prolongation” value (hexobarbital anaesthesia; dose 43.8 mg/kg peroral) was 1.6.
With `COc1ccc2c(c1)N1CCN(C)CC1CN=C2c1cccs1` (centres unmarked) [Example 51] the LD50 at 168 h [1] was over 704 mg/kg, the inhibition in vivo at 2.2 mg/kg [2] was 57% and the “Prolongation” value (hexobarbital anaesthesia; dose 22.3 mg/kg peroral) was 1.9.
With `CN1CCN2c3cc(F)ccc3C(c3cccs3)=NCC2C1` (centres unmarked) [Example 55] the LD50 at 168 h [1] was over 315 mg/kg, the inhibition in vivo at 0.2 mg/kg ([2]; dose 0.2 mg/kg peroral) was 47% and the “Prolongation” value (hexobarbital anaesthesia; dose 6.8 mg/kg peroral) was 1.3.
With `Cc1cc(C)c2c(c1)N1CCOCC1CN=C2c1cccs1` (centres unmarked) [Example 63] the inhibition in vivo at 21.3 mg/kg ([2]; dose 21.3 mg/kg peroral) was 11% and the “Prolongation” value (hexobarbital anaesthesia; dose 67.2 mg/kg peroral) was 1.5.
In the case of `Cc1cc(C)c2c(c1)N1CCSCC1CN=C2c1cccs1` (centres unmarked) [Example 65], the inhibition in vivo at 22.4 mg/kg ([2]; dose 22.4 mg/kg peroral) is reported as 12%.
For `CCN1CCN2c3ccccc3C(c3cccs3)=NCC2C1` (centres unmarked) [Example 69], the LD50 at 168 h [1] was about 420 mg/kg, the inhibition in vivo at 0.7 mg/kg ([2]; dose 0.7 mg/kg peroral) was 71% and the “Prolongation” value (hexobarbital anaesthesia; dose ≤28.0 mg/kg peroral) was 0.
In the case of `C=CCN1CCN2c3ccccc3C(c3cccs3)=NCC2C1` (centres unmarked) [Example 70], the LD50 at 168 h [1] is reported as about 790 mg/kg, the inhibition in vivo at 2.2 mg/kg [2] is reported as 36% and the “Prolongation” value (hexobarbital anaesthesia; dose ≤39.6 mg/kg peroral) is reported as 0.
In the case of `CC(C)CCN1CCN2c3ccccc3C(c3cccs3)=NCC2C1` (centres unmarked) [Example 74], the LD50 at 168 h [1] is reported as about 730 mg/kg, the inhibition in vivo at 3.3 mg/kg ([2]; dose 3.3 mg/kg peroral) is reported as 70% and the “Prolongation” value (hexobarbital anaesthesia; dose 33.0 mg/kg peroral) is reported as 2.0.
